Experiments:
[1] = HepG2 cytotoxicity assay (resazurin); format: cell-based, human; conditions: human, HepG2 cells; HepG2, 24 hr drug, 24 hr recovery
Experimental: In this assay, HepG2 cells were incubated with test compounds for 24 hours, followed by a 24-hour recovery period and subsequent staining to evaluate for cytotoxic effects with resazurin. The ratio of the resulting HepG2 IC50 value to the P. falciparum D6 IC50 value can be considered an ‘in vitro therapeutic index,’ or IVTI.
Compounds were prepared as 10 mM stock solutions in DMSO. […] HepG2 cells were added to each well of flat bottom 96-well tissue culture plates at an initial density of 2×10^4 cells per well, and an initial volume of 160 μL complete medium per well. After an overnight incubation at 37° C. to adhere the cells to the culture plates, 40 μL drug solutions in complete medium were applied to each well at a final concentration range of 0 to 200 μM across each plate. Drugs were tested in triplicate or quadruplicate. The cells were incubated for 24 hours at 37° C. and 5% CO2 with the drug solutions, which were then aspirated and replaced with 200 μL per well of complete medium for an additional 24 hour incubation under the same conditions. To each well was added 20 μL of resazurin (Alamar Blue) in PBS buffer to a final concentration of 10 μM, and the plates were incubated for 3 hours. Fluorescence was measured at 560 nm excitation and 590 nm emission bands using a Spectramax iD3 plate reader. Fluorescence readings were normalized with respect to the untreated control wells and plotted against the logarithm of drug concentration.

P. falciparum Dd2 = test: SYBR Green growth inhibition assay, P. falciparum Dd2; format: cell-based, Plasmodium falciparum; conditions: Plasmodium falciparum, DD2, 72 h, read-out: IC50 Dd2
Experimental: (§1) In addition to the drug-sensitive P. falciparum D6 strain, the aminoguanidines were assessed against three drug-resistant strains (Tables 1-3).
(§2) The following parasite strains were used in this study and obtained through BEI Resources, NIAID, NIH. […] The culture medium used was RPMI-1640, supplemented with 25 mM HEPES buffer, 25 mg/L gentamicin sulfate, 45 mg/L hypoxanthine, 10 mM glucose, 2 mM glutamine, and 0.5% Albumax II (complete medium).^43 Cultures were maintained in a standard low oxygen atmosphere (5% O2, 5% CO2, 90% N2) in an environmental chamber and incubated at 37° C. Cultures were sub-passaged every 3-4 days into a fresh culture flask containing complete media and erythrocytes.
(§3) The aminoguanidine series was assessed for in vitro antiplasmodial activity using the fluorescence-based SYBR Green assay described previously by Smilkstein and co-workers.^38 Compounds were evaluated in quadruplicate in flat-bottomed Costar clear 96-well plates (Model #3585). A two-fold serial dilution of each compound was performed across the columns of the test plates starting with 20 μM and ending with a final untreated column to serve as control wells. Asynchronous parasite infected erythrocytes in growth media were added to each well for a total volume of 100 μL, final hematocrit of 2%, and initial parasitemia of 0.2%. The commercial malaria drugs atovaquone and chloroquine were used as control drugs. Test plates were incubated for 72 hr at 37° C. in an environmental chamber with a controlled low oxygen atmosphere (5% O2, 5% CO2, 90% N2). After the incubation period, 100 μL SYBR Green I dye-detergent solution was added to each well, and the plates were incubated at ambient temperature and atmosphere in the dark for at least one hour. Fluorescence was read at 497 nm excitation and 520 nm emission bands using a Spectramax iD3 plate reader. Fluorescence readings were normalized with respect to the untreated control wells representing normal parasite growth and plotted against the logarithm of drug concentration.

P. falciparum strain D6 = test: SYBR Green growth inhibition assay, P. falciparum D6; format: cell-based, Plasmodium falciparum; conditions: Plasmodium falciparum, D6, Erythrocyte, 72 h, read-out: IC50 D6
Experimental: The in vitro activity of each compound in the aminoguanidine library was assessed against asynchronous cultures of Plasmodium falciparum parasites replicating within human erythrocytes (Tables 1-3). As the chemical development of robenidine was not discussed in its original publication in 1970^4 and limited structural information is available regarding its mechanism of action,^10 profiling was guided primarily by in vitro potency against the P. falciparum D6 strain cultured in human erythrocytes as described above.
as §2
as §3, with “The commercial malaria drugs atovaquone and chloroquine were used as control drugs.” left out

P. falciparum Tm90-C2B = test: SYBR Green growth inhibition assay, P. falciparum Tm90-C2B; format: cell-based, Plasmodium falciparum; conditions: Plasmodium falciparum, TM90, 72 h, read-out: IC50 Tm90-C2B
Experimental: as §1, §2, §3

P. falciparum A6 = test: SYBR Green growth inhibition assay, P. falciparum A6; format: cell-based, Plasmodium falciparum; conditions: Plasmodium falciparum, 72 h, read-out: IC50 A6
Experimental: as §1, §2, §3

Compound | IC50 at 24 h [1] [nM] | IC50 (P. falciparum Dd2) [nM] | IC50 (P. falciparum strain D6) [nM] | IC50 (P. falciparum Tm90-C2B) [nM] | IC50 (P. falciparum A6) [nM]
N=C(N/N=C/c1cccc(Cl)c1)N/N=C/c1cccc(Cl)c1 [Compound 6] | 35000 | 567 | 202 | 664 | 237
N=C(N/N=C/c1ccc(O)cc1)N/N=C/c1ccc(O)cc1 [Compound 25] | 39000 | 240 | 143 | 286 | 278
N=C(N/N=C/c1ccc(C(F)(F)F)cc1)N/N=C/c1ccc(C(F)(F)F)cc1 [Compound 12] | 40000 | 1540 | 614 | 2740 | 567
N=C(N/N=C/c1ccc(F)cc1)N/N=C/c1ccc(F)cc1 [Compound 4] | 24000 | 3790 | 1020 | 4900 | 369
N=C(N/N=C/c1cccc(F)c1)N/N=C/c1cccc(F)c1 [Compound 3] | 49000 | > 5000 | 767 | > 5000 | 426
N=C(N/N=C/c1ccc(Br)cc1)N/N=C/c1ccc(Br)cc1 [Compound 9] | 38000 | 876 | 277 | 899 | 269
CN(C)c1ccc(/C=N/NC(=N)N/N=C/c2ccc(N(C)C)cc2)cc1 [Compound 28] | 20000 | 264 | 118 | 213 | 122
N=C(N/N=C/c1ccccc1)N/N=C/c1ccccc1F [Compound 38] | > 200000 | 2200 | 1030 | > 5000 | 833
N=C(N/N=C/c1cccc(OC(F)(F)F)c1)N/N=C/c1cccc(OC(F)(F)F)c1 [Compound 15] | 61000 | 1570 | 670 | 2990 | 689
N=C(N/N=C/c1ccc(OC(F)F)cc1)N/N=C/c1ccc(OC(F)F)cc1 [Compound 18] | 19000 | 191 | 71 | 193 | 87
N=C(N/N=C/c1ccccc1Br)N/N=C/c1ccccc1Br [Compound 7] | 94000 | 715 | 280 | 974 | 876
N=C(N/N=C/c1ccccc1Cl)N/N=C/c1ccccc1Cl [Compound 5] | > 200000 | 961 | 334 | 1220 | 348
N=C(N/N=C/c1ccccc1OC(F)(F)F)N/N=C/c1ccccc1OC(F)(F)F [Compound 14] | 156000 | 2330 | 1080 | > 5000 | 391
N#Cc1ccccc1/C=N/NC(=N)N/N=C/c1ccccc1C#N [Compound 20] | 31000 | 2100 | 1020 | 1990 | 969
N=C(N/N=C/c1cccc(Br)c1)N/N=C/c1cccc(Br)c1 [Compound 8] | 62000 | 1520 | 572 | 1840 | 502
N=C(N/N=C/c1ccc(N2CCOCC2)cc1)N/N=C/c1ccc(N2CCOCC2)cc1 [Compound 33] | > 200000 | 329 | 131 | 295 | 116
CC#COc1ccc(/C=N/NC(=N)N/N=C/c2ccc(OC#CC)cc2)cc1 [Compound 32] | > 200000 | 199 | 102 | 376 | 153
N=C(N/N=C/c1ccc(-c2ccccc2)cc1)N/N=C/c1ccc(-c2ccccc2)cc1 [Compound 26] | > 200000 | 87 | 15 | 71 | 33
COc1ccc(/C=N/NC(=N)N/N=C/c2ccc(OC)cc2)cc1 [Compound 11] | > 200000 | 1600 | 263 | > 5000 | 289

Source: patent publication US20220267258A1, “ROBENIDINE ANALOGS AS POTENT ANTIMALARIALS AGAINST DRUG-RESISTANT PLASMODIUM FALCIPARUM” (OREGON HEALTH & SCIENCE UNIVERSITY, priority 2021, published 2022)
